Paper PMC10945739, “Exploring Cassia mimosoïdes as a promising natural source of steroids with potent anti-cancer, urease inhibition, and antimicrobial properties” (RSC Advances, 2024)
Converted amounts (≈) assume the structure as drawn. Read-outs that look alike come from different tables or passages of the source.

Key:
Aspergillus niger = assay: Antifungal bioassay, poisoned medium technique; format: cell-based; settings: 168 h, read-out: MIC values against Aspergillus niger
Experimental: (§1) Anti-microbial assays of the isolated componds were performed against the selected strain of fungi i.e., Alternaria alternata, Aspergillus fumigatus, Aspergillus niger, and Penicillium citrii.
(§2) Alternaria alternata, Aspergillus fumigatus, Aspergillus niger, and Penicillium citrii strains were obtained from the Biotechnology lab at COMSATS University Islamabad. The antifungal activity of isolated compounds was assessed using poisoned medium technique. Two percent malt extract agar medium was generated by autoclaving at 121 °C for 30 minutes. Weighed volumes of the compounds were dissolved in […] of sterilized distilled water and put to flasks containing 59.5 mL of malt extract agar medium while they were still molten to obtain final concentrations of 100, 300, 500, 700, 900, and 1000 ppm. The control received the same amount of distilled water. Each sterile Petri plate with a diameter of 90 mm was filled with 20 mL of each medium and allowed to solidify. 5 mm diameter mycelial discs were produced from the tips of 5–7 day-old cultures of the four test fungus species and put in the center of each Petri dish using a sterile cork borer. Every treatment was duplicated three times. Plates were cultured in an incubator at 25 ± 2 °C for seven days. To calculate the rate of fungal growth, the three diameters of each colony were measured at right angles and averaged. Table 2 MIC values (μM) of the isolated compounds against Alternaria alternata, Aspergillus fumigatus, Aspergillus niger, and Penicillium citrii strains.[19]

Aspergillus fumigatus = assay: Antifungal bioassay, poisoned medium technique; format: cell-based; settings: 168 h, read-out: MIC values against Aspergillus fumigatus
Experimental: as §1, §2

Alternaria alternata = assay: Antifungal bioassay, poisoned medium technique; format: cell-based; settings: 168 h, read-out: MIC values against Alternaria alternata
Experimental: as §1, §2

Penicillium citrii = assay: Antifungal bioassay, poisoned medium technique; format: cell-based; settings: 168 h, read-out: MIC values against Penicillium citrii
Experimental: as §1, §2

[1] = system: human HepG2 hepatic cancer cells; assay: MTT cell viability assay; format: cell-based; settings: Homo sapiens; for viability at 200 µg: HepG2, 48 h
Experimental: The human liver cells were cultivated in Dulbecco's modified Eagle medium (DMEM) in which 100 U mL^−1 penicillin, 10% fetal bovine and […] streptomycin were added and kept at 37 °C in a […] carbon dioxide induced humidified environment. The human liver cells prepared as per above procedure were then treated with synthesized compounds diluted to 0.05% DMSO concentration.
Using MTT assay, the % viability of cancer cells 36 was evaluated. According to the standard procedure, HepG2 cells were treated with various dosages of synthesized compounds for 48 hours each. The cells were then incubated for 4 hours at 37 °C with 10μ MTT reagent (5 mg mL^−1). Next, in 150 μL DMSO was added to dissolve formazan crystals. The λmax was recorded at 409 nm in a microplate reader (thermos scientific).

Jack bean urease = Jack bean urease (Canavalia ensiformis, UniProt P07374); assay: biochemical; format: biochemical; settings: for inhibition at 500 µM: pH 6.8, read-out: % Inhibition of urease
Jack bean urease, sequence (P07374 whole entry, looked up): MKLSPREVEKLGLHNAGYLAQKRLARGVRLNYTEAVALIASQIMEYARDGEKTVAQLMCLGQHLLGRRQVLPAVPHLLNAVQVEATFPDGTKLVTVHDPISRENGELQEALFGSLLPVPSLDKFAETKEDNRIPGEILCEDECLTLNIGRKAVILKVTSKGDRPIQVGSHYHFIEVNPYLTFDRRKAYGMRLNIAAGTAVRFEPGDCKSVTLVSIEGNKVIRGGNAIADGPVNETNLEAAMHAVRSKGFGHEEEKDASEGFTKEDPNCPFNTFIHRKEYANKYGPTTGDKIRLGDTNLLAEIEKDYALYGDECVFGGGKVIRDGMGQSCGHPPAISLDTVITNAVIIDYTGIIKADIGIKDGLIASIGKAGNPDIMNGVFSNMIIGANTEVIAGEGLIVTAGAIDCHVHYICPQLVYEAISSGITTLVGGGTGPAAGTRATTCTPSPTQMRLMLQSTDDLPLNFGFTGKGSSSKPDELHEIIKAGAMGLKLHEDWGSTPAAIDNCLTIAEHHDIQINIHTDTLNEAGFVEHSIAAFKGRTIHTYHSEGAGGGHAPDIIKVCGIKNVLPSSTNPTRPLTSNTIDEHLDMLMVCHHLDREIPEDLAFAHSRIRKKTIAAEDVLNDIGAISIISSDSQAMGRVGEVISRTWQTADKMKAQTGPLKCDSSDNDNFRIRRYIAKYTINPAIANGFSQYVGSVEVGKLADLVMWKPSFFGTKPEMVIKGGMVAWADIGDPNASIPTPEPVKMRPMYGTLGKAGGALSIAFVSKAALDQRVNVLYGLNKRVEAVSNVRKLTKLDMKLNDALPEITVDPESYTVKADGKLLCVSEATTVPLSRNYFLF
Experimental: The inhibition potential of the isolated compounds against urease was investigated using a SpectraMax M2 reader using 96-well microplates.
The kinetic assay involved preparing varying concentrations of both the test compound and the substrate (urea), spanning 0 μM, 5 μM, 10 μM, 15 μM, and 20 μM. The resulting data was utilized to construct a Lineweaver–Burk plot.
In 96-well plates were incubated at 37 °C for 15 min, reaction mixtures consisting of 25 μL of test compounds (each 0.5 mM), 25 μL of enzyme solution (Jack bean urease) and 55 μL of buffers containing 20.79 mM urea. The indophenol method described by Weatherburn[21] was used to determine urease inhibitor activity by measuring ammonia production. Briefly, to each well were added 70 μL of alkaline reagent (0.5% w/v NaOH and 0.1% active chloride, NaOCl) and 45 μL of phenolic reagent (1% w/v phenol and 0.005% w/v sodium nitroprusside). The microplate reader (Molecular Devices, USA) was used to measure the increase in absorbance at 650 nm after 50 min. A final volume of 245 μL was required to perform all reactions in a triplicate. The results (absorbance change per minute) were processed using SoftMax Pro software (Molecular Devices, USA). All assays were performed at pH 6.8. Inhibition percentages were calculated from the formula% Inhibition = 100 − (Abs(sample)/Abs(control)) × 100where “A” is the absorbance of the “test well” as well as the “control”. Thiourea was used as a standard.

[2] = poisoned medium, 25 ± 2 °C, seven days
[3] = HepG2, MTT, 48 hours, at 200 μg

Row | SMILES | MIC (Aspergillus niger; [2]) [µM] | MIC (Aspergillus fumigatus; [2]) [µM] | MIC (Alternaria alternata; [2]) [µM] | MIC (Penicillium citrii; [2]) [µM] | viability at 200 µg [1, 3] [%] | IC50 (Jack bean urease) [µM] | inhibition at 500 µM (Jack bean urease) [%] | also measured
1 | O=c1cc(-c2ccc(O)c(O)c2)oc2cc(O)cc(O)c12 [Compound 2, Luteolin] | 0.021 ± 0.001 (≈ 6.01 ng/mL) | 0.01 ± 0.004 (≈ 2.86 ng/mL) | 0.043 ± 0.002 (≈ 12.3 ng/mL) | 0.05 ± 0.002 (≈ 14.3 ng/mL) | 82.5 ± 4.31 | 1.3 ± 0.28 | 82 | –
2 | NC(N)=S [thiourea, reference compound] | – | – | – | – | – | – | – | IC50 (Jack bean urease; pH 6.8, read-out: IC50 ± SEM, urease): 18.61 ± 0.11 µM; IC50 (Jack bean urease; read-out: IC50, urease (conclusions)): 18.61 ± 0.11 µM; % Inhibition of urease (Jack bean urease; test compounds each 0.5 mM, pH 6.8): 86.73%
3 | O=c1cc(-c2ccc(O)c(O)c2)oc2c([C@@H]3O[C@H](CO)[C@@H](O)[C@H](O)[C@H]3O)c(O)cc(O)c12 [Compound 6, Luteolin-8-C-β-D-glucopyranoside] | – | – | – | – | 89.2 ± 2.5 | 5.03 ± 0.12 | 71.5 | –
4 | O=c1cc(-c2ccc(O)c(O)c2)oc2c([C@@H]3O[C@H](CO)[C@@H](O)[C@H](O)[C@H]3O)c(O)cc(O)c12 [Luteolin-8-C-β-D-glucopyranoside] | – | – | – | – | – | – | – | MIC (Aspergillus niger): 0.013 ± 0.006 µM (≈ 5.83 ng/mL); MIC (Aspergillus fumigatus): 0.014 ± 0.005 µM (≈ 6.28 ng/mL); MIC (Alternaria alternata): 0.021 ± 0.005 µM (≈ 9.42 ng/mL); MIC (Penicillium citrii): 0.015 ± 0.008 µM (≈ 6.73 ng/mL)
5 | O=c1cc(-c2ccc(O)c(O)c2)oc2cc(O)c([C@@H]3O[C@H](CO)[C@@H](O)[C@H](O)[C@H]3O)c(O)c12 [Luteolin-6-C-β-D-glucopyranoside] | 0.0072 ± 0.0003 (≈ 3.23 ng/mL) | 0.25 ± 0.003 (≈ 112 ng/mL) | 0.06 ± 0.007 (≈ 26.9 ng/mL) | 0.022 ± 0.003 (≈ 9.86 ng/mL) | – | – | – | –
6 | COc1cc(O)c2c(c1)C(=O)c1cc(C)cc(O)c1C2=O [Physcion] | 0.09 ± 0.009 (≈ 25.6 ng/mL) | 0.035 ± 0.006 (≈ 9.95 ng/mL) | 0.015 ± 0.005 (≈ 4.26 ng/mL) | 0.03 ± 0.005 (≈ 8.53 ng/mL) | – | – | – | –
7 | COc1cc(O)cc2oc(-c3ccc(O)c(O)c3)cc(=O)c12 [Compound 4, Luteolin-5-methyl ether] | – | – | – | – | 90.5 ± 2.15 | 3.87 ± 0.24 | 82.7 | –
8 | Cc1cc(O)c2c(c1)C(=O)c1cccc(O)c1C2=O [Chrysophanol] | 0.03 ± 0.002 (≈ 7.63 ng/mL) | 0.06 ± 0.001 (≈ 15.3 ng/mL) | 0.012 ± 0.003 (≈ 3.05 ng/mL) | 0.05 ± 0.001 (≈ 12.7 ng/mL) | – | – | – | –
9 | CC[C@H](CC[C@@H](C)[C@H]1CC[C@H]2[C@@H]3C[C@H](O)C4=C[C@@H](O)CC[C@]4(C)[C@H]3CC[C@]12C)C(C)C [Compound 10, Stigmast-4-en-3β,6α-diol] | – | – | – | – | 14.5 ± 0.68 | 6.68 ± 0.11 | 76.6 | IC50 ([1]; HepG2, calculated using Graph Pad Prism software, read-out: IC50 against HepG2): 7.8 µM
10 | Cc1cc(O)c2c(c1)C(=O)c1cc(O)cc(O)c1C2=O [Emodin] | 0.04 ± 0.003 (≈ 10.8 ng/mL) | 0.035 ± 0.005 (≈ 9.46 ng/mL) | 0.01 ± 0.006 (≈ 2.7 ng/mL) | 0.045 ± 0.005 (≈ 12.2 ng/mL) | – | – | – | –
11 | O=c1cc(-c2ccc(O)cc2)oc2c([C@@H]3O[C@H](CO)[C@@H](O)[C@H](O)[C@H]3O)c(O)cc(O)c12 [Compound 5, Apigenin-8-C-β-D-glucopyranoside] | – | – | – | – | – | 4.73 ± 0.22 | 77.5 | viability at 200 µg [1]: 94.7 ± 7.4%
12 | CC[C@H](CC[C@@H](C)C1CCC2C3CC=C4C[C@@H](O[C@@H]5O[C@H](CO)[C@@H](O)[C@H](O)[C@H]5O)CC[C@]4(C)C3CC[C@@]21C)C(C)C (stereo partly drawn) [Compound 16, β-Sitosterol 3-O-β-D-glucopyranoside] | – | – | – | – | 96.4 ± 2.2 | – | 19.5 | –
13 | CCC(CCC(C)C1CCC2C3CC(=O)C4=CC(=O)CCC4(C)C3CCC12C)C(C)C (stereo not shown) [Stigmast-4-en-3,6-dione] | 0.02 ± 0.006 (≈ 8.53 ng/mL) | 0.125 ± 0.0015 (≈ 53.3 ng/mL) | 0.15 ± 0.005 (≈ 64 ng/mL) | 0.04 ± 0.003 (≈ 17.1 ng/mL) | – | – | – | –
